Source: ChEMBL document CHEMBL4616660, “Phenylpropanoid-Conjugated Triterpenoids from the Leaves of Actinidia arguta and Their Inhibitory Activity on α-Glucosidase” (J Nat Prod, 2020)

tested on: Saccharomyces cerevisiae; test: Inhibition of Saccharomyces cerevisiae alpha-glucosidase at 100 uM using p-nitrophenyl alpha-Dglucopyranoside as substrate preincubated for 15 mins followed by substrate addition and measured after 20 mins relative to control

Point of comparison: `C=C1CC[C@]2(C(=O)O)CC[C@]3(C)C(=CC[C@@H]4[C@@]5(C)C[C@@H](O)[C@H](O)[C@@](C)(COC(=O)/C=C\c6ccc(O)cc6)[C@@H]5CC[C@]43C)[C@@H]2[C@H]1C`, inhibition 38.8%. Against it:
- C=C1CC[C@]2(C(=O)O)CC[C@]3(C)C(=CC[C@@H]4[C@@]5(C)C[C@@H](O)[C@H](O)[C@@](C)(CO)[C@@H]5CC[C@]43C)[C@@H]2[C@H]1C — lower, 13%
- C[C@H]1[C@H](C)CC[C@]2(C(=O)O)CC[C@]3(C)C(=CC[C@@H]4[C@@]5(C)C[C@@H](O)[C@H](OC(=O)/C=C/c6ccc(O)c(O)c6)[C@@](C)(CO)[C@@H]5CC[C@]43C)[C@H]12 — higher, 72.8%
- C[C@H]1[C@H](C)CC[C@]2(C(=O)O)CC[C@]3(C)C(=CC[C@@H]4[C@@]5(C)C[C@@H](O)[C@H](O)[C@@](C)(COC(=O)/C=C\c6ccc(O)cc6)[C@@H]5CC[C@]43C)[C@H]12 — higher, 59%
- C=C1C=C[C@]2(C(=O)O)CC[C@]3(C)C(=CC[C@@H]4[C@@]5(C)C[C@@H](O)[C@@H](O)[C@@](C)(CO)[C@@H]5CC[C@]43C)[C@@H]2[C@H]1C — lower, 3%
- C[C@H]1O[C@H](O[C@H]2[C@H](O)[C@@H](O)[C@@H](O[C@H]3[C@H](O)[C@@H](O)C(O)O[C@@H]3CO)O[C@@H]2CO)[C@H](O)[C@@H](O)[C@@H]1N[C@H]1C=C(CO)[C@@H](O)[C@H](O)[C@H]1O (stereo partly specified) — higher, 72.8%
- C[C@H]1[C@H](C)CC[C@]2(CO)CC[C@]3(C)C(=CC(=O)[C@@H]4[C@@]5(C)CC[C@H](O)C(C)(C)[C@@H]5CC[C@]43C)[C@H]12 — lower, 34.3%
- C=C1CC[C@]2(C(=O)O)CC[C@]3(C)C(=CC[C@@H]4[C@@]5(C)C[C@@H](O)[C@H](OC(=O)/C=C\c6ccc(O)cc6)[C@@](C)(CO)[C@@H]5CC[C@]43C)[C@@H]2[C@H]1C — higher, 41.4%
- C=C1CC[C@]2(C(=O)O)CC[C@]3(C)C(=CC[C@@H]4[C@@]5(C)C[C@@H](O)[C@@H](O)[C@@](C)(CO)[C@@H]5CC[C@]43C)[C@@H]2[C@H]1C — lower, 1.7%
- C=C1CC[C@]2(C(=O)O)CC[C@]3(C)C(=CC[C@@H]4[C@@]5(C)C[C@@H](OC(=O)/C=C/c6ccc(O)cc6)[C@H](O)[C@@](C)(CO)[C@@H]5CC[C@]43C)[C@@H]2[C@H]1C — higher, 70.1%
- C[C@H]1[C@H](C)CC[C@]2(C(=O)O)CC[C@]3(C)C(=CC[C@@H]4[C@@]5(C)C[C@@H](OC(=O)/C=C/c6ccc(O)cc6)[C@H](O)[C@@](C)(CO)[C@@H]5CC[C@]43C)[C@H]12 — higher, 67.2%
- C=C1CC[C@]2(C(=O)O)CC[C@]3(C)C(=CC[C@@H]4[C@@]5(C)C[C@@H](O)[C@H](OC(=O)/C=C/c6ccc(O)cc6)[C@@](C)(CO)[C@@H]5CC[C@]43C)[C@@H]2[C@H]1C — higher, 65.8%
- CO[C@@H]1C(O)=C2[C@@H]3[C@@H](C)[C@H](C)CC[C@]3(C)CC[C@@]2(C)[C@]2(C)CC[C@H]3C(C)(C)[C@@H](O)CC[C@]3(C)[C@@H]12 — lower, 23.9%
- C=C1CC[C@]2(C(=O)O)CC[C@]3(C)C(=CC[C@@H]4[C@@]5(C)C[C@@H](O)[C@H](O)[C@@](C)(COC(=O)/C=C/c6ccc(O)cc6)[C@@H]5CC[C@]43C)[C@@H]2[C@H]1C — higher, 59.9%
- C[C@H]1[C@H](C)CC[C@]2(C(=O)O)CC[C@]3(C)C(=CC[C@@H]4[C@@]5(C)C[C@@H](O)[C@H](OC(=O)/C=C/c6ccc(O)cc6)[C@@](C)(CO)[C@@H]5CC[C@]43C)[C@H]12 — higher, 81.3%
- C[C@H]1[C@H](C)CC[C@]2(C(=O)O)CC[C@]3(C)C(=CC[C@@H]4[C@@]5(C)C[C@@H](O)[C@H](O)[C@@](C)(COC(=O)/C=C/c6ccc(O)cc6)[C@@H]5CC[C@]43C)[C@H]12 — higher, 67%
